These results are taken from US8280710B2, “Method for determining thermal stability of collagen or collagen-like peptide” (University of Medicine and Dentistry of New Jersey, priority 2005, dated 2012).

For series [1] the following is noted: peptide of Table 3, defined standard conditions. As to the method:
The propensity measurements for all 20 amino acid residues in the Xaa1 position in a Gly-Xaa1-Hyp context and all 20 amino acid residues in the Xaa2 position in a Gly-Pro-Xaa2 context were determined by measuring thermal stability of host-guest peptides (Persikov, et al. (2000) supra).
The Tm values of all host-guest peptides were measured under a set of standard conditions, with c=1 mg/ml in phosphate-buffered saline, pH 7.0, and with a heating rate average of 0.1° C./minute (Persikov, et al. (2004) supra).

A short description of series [2]: Method for predicting global Tm of collagen peptides from amino acid sequence. Particulars: observed minus predicted, peptides of Table 3. The method, then: The global thermal stability of homotrimeric triple helical peptides with length of at least 6 tripeptide units and, in most cases, containing 10 tripeptide units was determined as follows.
For the total number of triplets n in a given peptide, the base Tm^0(n) for (Pro-Hyp-Gly) or (Pro-Pro-Gly)n was calculated from the length dependence (Equation 1), including any effect of blocking groups;
The melting temperature value was decreased for every triplet in the sequence that was not Gly-Pro-Hyp, subtracting a value of ΔTm^GXY (Table 1). The N-terminal and C-terminal tripeptide units were excluded from the calculation due to the staggering of the chains and the disorder for the peptide ends (Bella et al. (1994) supra; Li, et al. (1993) Biochemistry 32:7377-7387; Kramer, et al. (2001) J. Mol. Biol. 301:1191-1205).
The resulting value for the peptide melting temperature was adjusted using the ΔTm^int values for interactions between neighboring tripeptides (Table 2).
The method was formulated as follows.
To extrapolate the dependence of the Tm of the host peptides on peptide length, the experimental values for (Pro-Hyp-Gly)n and (Pro-Pro-Gly)n versus n, where n is the number of tripeptide units, were fit to the exponential decay function
[formula] where Tm^0(n) is defined as the base thermal stability of the repeating polytripeptide standard, Tm^max is the maximum melting temperature, and the constant n0 represents the length of the repeating peptide with Tm=0.

Non-standard residues stand in square brackets, D forms with d. Residues, ends and D or L forms follow the SMILES beside them. Hyp = O=C(O)[C@@H]1C[C@@H](O)CN1

Broadly, the ΔTm is the shift of the melting midpoint relative to a reference. Regarding `CC(=O)NCC(=O)N1CCC[C@H]1C(=O)N1C[C@H](O)C[C@H]1C(=O)NCC(=O)N1CCC[C@H]1C(=O)N1C[C@H](O)C[C@H]1C(=O)NCC(=O)N[C@@H](CCCNC(=N)N)C(=O)N[C@@H](CCC(N)=O)C(=O)NCC(=O)N[C@@H](CCCCN)C(=O)N[C@@H](CCCNC(=N)N)C(=O)NCC(=O)N[C@@H](CCCCN)C(=O)N1C[C@H](O)C[C@H]1C(=O)NCC(=O)N1CCC[C@H]1C(=O)N1C[C@H](O)C[C@H]1C(=O)NCC(=O)N1CCC[C@H]1C(=O)N1C[C@H](O)C[C@H]1C(=O)NCC(=O)N1CCC[C@H]1C(=O)N1C[C@H](O)C[C@H]1C(=O)NCC(=O)NCC(N)=O` [AchE-HG-Alt, Ac-GPO-GPO-GRQ-GKR-GKO-GPO-GPO-GPO-GG-NH2] (Ac-GP[Hyp]GP[Hyp]GRQGKRGK[Hyp]GP[Hyp]GP[Hyp]GP[Hyp]GG-NH2), the “Tm^obs” value in series [1] is 20.1 °C. Further, the ΔTm in series [2] is −0.5 °C.

Consider `CC(=O)NCC(=O)N1CCC[C@H]1C(=O)N1C[C@H](O)C[C@H]1C(=O)NCC(=O)N1CCC[C@H]1C(=O)N1C[C@H](O)C[C@H]1C(=O)NCC(=O)N1CCC[C@H]1C(=O)N1C[C@H](O)C[C@H]1C(=O)NCC(=O)N[C@@H](CCCCN)C(=O)N[C@@H](CCCNC(=N)N)C(=O)NCC(=O)N[C@@H](CCCCN)C(=O)N1C[C@H](O)C[C@H]1C(=O)NCC(=O)N1CCC[C@H]1C(=O)N1C[C@H](O)C[C@H]1C(=O)NCC(=O)N1CCC[C@H]1C(=O)N1C[C@H](O)C[C@H]1C(=O)NCC(=O)N1CCC[C@H]1C(=O)N1C[C@H](O)C[C@H]1C(=O)NCC(=O)NCC(N)=O` [AchE-HG-C1, Ac-GPO-GPO-GPO-GKR-GKO-GPO-GPO-GPO-GG-NH2] (Ac-GP[Hyp]GP[Hyp]GP[Hyp]GKRGK[Hyp]GP[Hyp]GP[Hyp]GP[Hyp]GG-NH2), for which the “Tm^obs” value in series [1] stood at 32.3 °C. In addition, the ΔTm in series [2] was −1.0 °C.

In the case of `CC(=O)NCC(=O)N1CCC[C@H]1C(=O)N1C[C@H](O)C[C@H]1C(=O)NCC(=O)N1CCC[C@H]1C(=O)N1C[C@H](O)C[C@H]1C(=O)NCC(=O)N[C@@H](CCCNC(=N)N)C(=O)N1C[C@H](O)C[C@H]1C(=O)NCC(=O)N[C@@H](CCCCN)C(=O)N[C@@H](CCCNC(=N)N)C(=O)NCC(=O)N[C@@H](CCCCN)C(=O)N1C[C@H](O)C[C@H]1C(=O)NCC(=O)N1CCC[C@H]1C(=O)N1C[C@H](O)C[C@H]1C(=O)NCC(=O)N1CCC[C@H]1C(=O)N1C[C@H](O)C[C@H]1C(=O)NCC(=O)N1CCC[C@H]1C(=O)N1C[C@H](O)C[C@H]1C(=O)NCC(=O)NCC(N)=O` [AchE-HG-C2, Ac-GPO-GPO-GRO-GKR-GKO-GPO-GPO-GPO-GG-NH2] (Ac-GP[Hyp]GP[Hyp]GR[Hyp]GKRGK[Hyp]GP[Hyp]GP[Hyp]GP[Hyp]GG-NH2), the “Tm^obs” value in series [1] came to 26.9 °C. Further, in series [2], the ΔTm is 0.3 °C. With `CC(=O)NCC(=O)N1CCC[C@H]1C(=O)N1C[C@H](O)C[C@H]1C(=O)NCC(=O)N1CCC[C@H]1C(=O)N1C[C@H](O)C[C@H]1C(=O)NCC(=O)N[C@@H](CCCNC(=N)N)C(=O)N1C[C@H](O)C[C@H]1C(=O)NCC(=O)N[C@@H](CCCCN)C(=O)N[C@@H](CCCNC(=N)N)C(=O)NCC(=O)N[C@@H](CCCCN)C(=O)N[C@@H](CCC(N)=O)C(=O)NCC(=O)N1CCC[C@H]1C(=O)N1C[C@H](O)C[C@H]1C(=O)NCC(=O)N1CCC[C@H]1C(=O)N1C[C@H](O)C[C@H]1C(=O)NCC(=O)N1CCC[C@H]1C(=O)N1C[C@H](O)C[C@H]1C(=O)NCC(=O)NCC(N)=O` [AchE-HG-C3, Ac-GPO-GPO-GRO-GKR-GKQ-GPO-GPO-GPO-GG-NH2] (Ac-GP[Hyp]GP[Hyp]GR[Hyp]GKRGKQGP[Hyp]GP[Hyp]GP[Hyp]GG-NH2), the “Tm^obs” value in series [1] is 21.3 °C. The ΔTm in series [2] is −2.7 °C. On the same counts, the results for `CC(=O)NCC(=O)N1CCC[C@H]1C(=O)N1C[C@H](O)C[C@H]1C(=O)NCC(=O)N1CCC[C@H]1C(=O)N1C[C@H](O)C[C@H]1C(=O)NCC(=O)N[C@@H](CCCNC(=N)N)C(=O)N1C[C@H](O)C[C@H]1C(=O)NCC(=O)N[C@@H](CCCCN)C(=O)N[C@@H](CCCNC(=N)N)C(=O)NCC(=O)N[C@@H](CCCCN)C(=O)N[C@@H](CCC(N)=O)C(=O)NCC(=O)N[C@@H](CCC(N)=O)C(=O)N[C@@H](CCCCN)C(=O)NCC(=O)N1CCC[C@H]1C(=O)N1C[C@H](O)C[C@H]1C(=O)NCC(=O)N1CCC[C@H]1C(=O)N1C[C@H](O)C[C@H]1C(=O)NCC(=O)NCC(N)=O` [AchE-HG-C4, Ac-GPO-GPO-GRO-GKR-GKQ-GQK-GPO-GPO-GG-NH2] (Ac-GP[Hyp]GP[Hyp]GR[Hyp]GKRGKQGQKGP[Hyp]GP[Hyp]GG-NH2) are 8.1 °C and −1.2 °C. Consider `CC(=O)NCC(=O)N1CCC[C@H]1C(=O)N1C[C@H](O)C[C@H]1C(=O)NCC(=O)N1CCC[C@H]1C(=O)N1C[C@H](O)C[C@H]1C(=O)NCC(=O)N1CCC[C@H]1C(=O)N1C[C@H](O)C[C@H]1C(=O)NCC(=O)N[C@@H](CCCNC(=N)N)C(=O)N[C@@H](CCCCN)C(=O)NCC(=O)N[C@@H](CCCNC(=N)N)C(=O)N1C[C@H](O)C[C@H]1C(=O)NCC(=O)N1CCC[C@H]1C(=O)N1C[C@H](O)C[C@H]1C(=O)NCC(=O)N1CCC[C@H]1C(=O)N1C[C@H](O)C[C@H]1C(=O)NCC(=O)N1CCC[C@H]1C(=O)N1C[C@H](O)C[C@H]1C(=O)NCC(=O)NCC(N)=O` [AchE-HG-N1, Ac-GPO-GPO-GPO-GRK-GRO-GPO-GPO-GPO-GG-NH2] (Ac-GP[Hyp]GP[Hyp]GP[Hyp]GRKGR[Hyp]GP[Hyp]GP[Hyp]GP[Hyp]GG-NH2), for which the “Tm^obs” value in series [1] came to 22.2 °C. The ΔTm in series [2] is −0.6 °C.

On to `CC(=O)NCC(=O)N1CCC[C@H]1C(=O)N1C[C@H](O)C[C@H]1C(=O)NCC(=O)N1CCC[C@H]1C(=O)N1C[C@H](O)C[C@H]1C(=O)NCC(=O)N[C@@H](CCCNC(=N)N)C(=O)N1C[C@H](O)C[C@H]1C(=O)NCC(=O)N[C@@H](CCCNC(=N)N)C(=O)N[C@@H](CCCCN)C(=O)NCC(=O)N[C@@H](CCCNC(=N)N)C(=O)N1C[C@H](O)C[C@H]1C(=O)NCC(=O)N1CCC[C@H]1C(=O)N1C[C@H](O)C[C@H]1C(=O)NCC(=O)N1CCC[C@H]1C(=O)N1C[C@H](O)C[C@H]1C(=O)NCC(=O)N1CCC[C@H]1C(=O)N1C[C@H](O)C[C@H]1C(=O)NCC(=O)NCC(N)=O` [AchE-HG-N2, Ac-GPO-GPO-GRO-GRK-GRO-GPO-GPO-GPO-GG-NH2] (Ac-GP[Hyp]GP[Hyp]GR[Hyp]GRKGR[Hyp]GP[Hyp]GP[Hyp]GP[Hyp]GG-NH2), for which the “Tm^obs” value in series [1] stood at 17.4 °C. The thermal shift (ΔTm) in series [2] was 1.3 °C. With `CC(=O)NCC(=O)N1CCC[C@H]1C(=O)N1C[C@H](O)C[C@H]1C(=O)NCC(=O)N1CCC[C@H]1C(=O)N1C[C@H](O)C[C@H]1C(=O)NCC(=O)N1CCC[C@H]1C(=O)N1C[C@H](O)C[C@H]1C(=O)NCC(=O)N1CCC[C@H]1C(=O)N1C[C@H](O)C[C@H]1C(=O)NCC(=O)N1CCC[C@H]1C(=O)N[C@@H](C)C(=O)NCC(=O)N1CCC[C@H]1C(=O)N[C@@H](C)C(=O)NCC(=O)N1CCC[C@H]1C(=O)N[C@H](C(=O)NCC(=O)N1CCC[C@H]1C(=O)N[C@@H](C)C(=O)NCC(=O)N[C@@H](C)C(=O)N[C@@H](CCCNC(=N)N)C(=O)NCC(=O)N1CCC[C@H]1C(=O)N[C@@H](C)C(=O)NCC(=O)N[C@H](C(N)=O)C(C)C)C(C)C` [T1-892r, Ac-(GPO)4-GPA-GPA-GPV-GPA-GAR-GPA-GV-NH2] (Ac-GP[Hyp]GP[Hyp]GP[Hyp]GP[Hyp]GPAGPAGPVGPAGARGPAGV-NH2), in series [2], the ΔTm was −2.2 °C. Same read-out and setting: with “MBL: MBL peptide(s) of Table 3 containing Gly-Lys-Asp-Gly-Arg-Asp-Gly-Thr-Lys-Gly-Glu-Lys-Gly-Glu-Hyp; not said whether MBL 42-61 or 45-61 (GKDGRDGTKGEKGEP)” the entry was “higher than observed”.
